No end group written: not given here.
Key:
[1] = molecular target: T1, PrtRII50 Arg-specific proteinase (Porphyromonas gingivalis, UniProt P95493); type: biochemical, Porphyromonas gingivalis W50; conditions: inhibition at similar concentrations to that which inhibited the PrtR45
T1 construct: made in house; host or cells: Porphyromonas gingivalis W50 (native enzyme purified from cell sonicate, not recombinant)
Description: P. gingivalis W50 was grown in batch culture (5 L) and harvested at late logarithmic phase by centrifugation (5,000×g, 20 min, 4° C.). Cells were washed once with 150 ml TC buffer (20 mM Tris-HCl pH 7.4 and 5 mM CaCl2) containing 50 mM NaCl and sonicated as described previously (Bhogal et al., 1997). The sonicate was centrifuged (100,000×g, 30 min, 4° C.) and the supernatant filtered (0.22 μm) prior to anion-exchange FPLC. The sonicate was applied to an anion-exchange column (Hiload XK 16/10 Q Sepharose, Pharmacia-LKB) cooled to 4° C., in multiple injections using a 50 ml superloop (Pharmacia-LKB). The sonicate was eluted using a linear gradient from 0-100% buffer B over 90 min at a flow rate of 2.0 ml min^−1. Absorbance was monitored at 280 nm and elutant collected at 4° C. in 6 ml fractions using a Frac 100 fraction collector (Pharmacia-LKB). Buffer A was TC buffer containing 50 mM NaCl and buffer B was TC buffer containing 500 mM NaCl. Fractions were analysed for proteolytic and amidolytic activity using azocasein (A-2765, Sigma Chemical Co. St Louis, Mo.), benzoyl-L-Arg-p-nitroanilide (Bz-L-Arg-pNA, Sigma) and benzyloxycarbonyl-L-Lys-p-nitroanilide (z-L-Lys-pNA, Calbiochem, Melbourne, Australia) as described previously (Bhogal et al., 1997) except that fractions were pre-incubated with 10 mM cysteine for 10 min at 25° C. before the addition of substrate. For the amidolytic assays absorbance was monitored at 410 nm as previously described (Bhogal et al., 1997) and the amidolytic activity expressed as U where U=μmol substrate converted min^−1 at 25° C. Anion-exchange fractions eluting between 160-246 mM NaCl containing the highest ratio of Arg-specific to Lys-specific activity were, washed and concentrated in TC buffer containing 150 mM NaCl using a centripep and centricon 10 concentrators (Amicon) and applied to a gel filtration column (Superose 12, HR 10/30, Pharmacia-LKB) using TC buffer containing 150 mM NaCl at a flow rate of 0.3 ml min^−1. Absorbance was monitored at 280 nm and fractions collected at 4° C. using a Frac 100 fraction collector. The Mr values of eluant peaks were determined using gel filtration molecular mass standards (Pharmacia-LKB). The peak eluting at 50 kDa containing only Arg-specific amidolytic activity was washed in TC buffer containing 50 mM NaCl using a centricon-10 concentrator (Amicon) and applied to a Mono Q (HR 5/5) anion-exchange column using a 5 ml loop and eluted using a linear gradient of 0-100% buffer B at a flow rate 1.0 ml min^−. Buffer A was TC buffer containing 150 mM NaCl, buffer B was TC buffer containing 500 mM NaCl. Absorbance was monitored at 280 nm and fractions collected at 4° C. using a Frac 100 fraction collector.

[2] = test system: Porphyromonas gingivalis strain 33277; experiment: Murine lesion (abscess) model, immunisation then P. gingivalis challenge; type: in vivo, BALB/c mice; conditions: for Maximum lesion size: BALB/c mice immunised s.c. with 50 μg antigen (or 2×10^9 killed cells) in CFA then IFA, s.c. challenge 8×10^9 cells, measured over 10 days; for protection against P. gingivalis challenge (lesion size), in words: relative to DT or adjuvant alone controls
Description: BALB/c mice (6 per group) were inoculated (s.c.) with 50 μg of antigen emulsified in CFA and IFA for the primary and secondary inoculations and then challenged (s.c.) with 8×10^9 cells of P. gingivalis strain 33277.
BALB/c mice 6-8 weeks old were immunised subcutaneously with either 50 μg of the peptide-DT conjugate, 50 μg of DT or 2×10^9 formalin killed cells of Porphyromonas gingivalis strain 33277 emulsified in complete Freund's adjuvant (CFA). After 30 days the mice were injected subcutaneously with antigen (either 50 μg of the peptide-DT conjugate, 50 μg of DT or 2×10^9 formalin killed cells of Porphyromonas gingivalis strain 33277) emulsified in incomplete Freund's adjuvant (IFA) and then bled from the retrobulbar plexus 12 days later. All mice were challenged with 8×10^9 cells of P. gingivalis (200 μL) by subcutaneous injection in the abdomen and weighed and lesion size measured over 10 days. Lesion sizes are expressed as mm^2 and were statistically analysed using a Kruskal-Wallis one-way ANOVA and Mann-Whitney U-Wilcoxon rank sum W test.

[3] = test system: TLCK-inactivated PrtR-PrtK proteinase-adhesin complex; experiment: Competitive binding assay (ELISA, ABM peptide-coated plates); parameters: species or system Porphyromonas gingivalis W50; conditions: for inhibition of binding of the TLCK-inactivated PrtR-PrtK complex to the adsorbed ABM peptide: competitor in solution; for binding of the PrtR-PrtK complex to the substance: TLCK-inactivated complex
Description: Competitive Binding Assay
Wells of flat-bottomed polyvinyl microtitre plates (Microtitre, Dynatech Laboratories, VA) were coated overnight at 4° C. using a solution (5 mg/ml) of the adhesin binding motif (ABM) peptide in 0.1M phosphate buffered saline, pH 7.4, containing 0.1% v/v Tween 20 (PBST) and 0.1% w/v sodium azide. After removal of the coating solution, 2% w/v skim milk powder in PEST was added to block the remaining uncoated plastic for 1 hour at room temperature and then washed (4×PBST). A solution (1 mg/ml) of the PrtR-PrtK proteinase-adhesion complex (inactivated with 1 mM TLCK) was incubated with known concentrations of ABM peptide, control peptide and casein for 1 hour and then transferred to the microtitre plates coated with the ABM peptide. Following incubation for 2 hours at 37° C. the plates were washed (5×PBST). A 1/10,000 dilution of rabbit anti-PrtR-PrtK antisera in PBST containing 1% w/v skim milk powder was then added to the washed wells and incubated for 2 hours at 37° C. Bound antibody was detected by incubation with horseradish peroxidase-conjugated goat immunoglobulin (Ig) directed against rabbit Ig (BioRad, Richmond, Calif.) for 1.5 hours at 37° C. After washing (5×PBST), substrate (0.4 mM 3,3′,5,5′-tetramethylbenzidine in 0.1M sodium acetate/citric acid buffer containing 0.004% v/v hydrogen peroxide) was added and colour development was stopped by addition of 2M H2SO4. Optical density (O.D.) at 450 nm was measured using a BioRad microplate reader model 450.

T1 sequence (P95493 230-736): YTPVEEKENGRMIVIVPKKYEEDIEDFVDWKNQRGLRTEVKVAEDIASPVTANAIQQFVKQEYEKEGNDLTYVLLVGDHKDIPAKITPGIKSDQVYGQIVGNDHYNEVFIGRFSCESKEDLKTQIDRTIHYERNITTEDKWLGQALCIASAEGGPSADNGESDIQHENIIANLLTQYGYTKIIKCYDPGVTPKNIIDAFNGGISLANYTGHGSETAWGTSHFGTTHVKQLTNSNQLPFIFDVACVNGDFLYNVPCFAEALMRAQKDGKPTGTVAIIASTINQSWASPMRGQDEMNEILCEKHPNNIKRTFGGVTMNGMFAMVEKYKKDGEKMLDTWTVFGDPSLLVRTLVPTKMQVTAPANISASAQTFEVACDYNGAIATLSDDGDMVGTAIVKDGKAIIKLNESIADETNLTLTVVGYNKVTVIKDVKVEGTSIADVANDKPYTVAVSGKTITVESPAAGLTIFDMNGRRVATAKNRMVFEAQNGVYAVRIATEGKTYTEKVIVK

Row | Compound | effect on activity of the Arg-specific 50 kDa enzyme [1] | Maximum lesion size [2] [mm^2] | other results
1 | NCCc1ccc(S(=O)(=O)F)cc1 [4-(2-aminoethyl)-benzenesulfonyl fluoride] | not inhibited |  | 
2 | O=C(O)CN(CCN(CC(=O)O)CC(=O)O)CC(=O)O [EDTA] | inhibited |  | 
3 | N[C@@H](CS)C(=O)O [cysteine] | activated |  | 
4 | CC(=O)N[C@@H](CC(C)C)C(=O)N[C@@H](CC(C)C)C(=O)N[C@H](C=O)CCCNC(=N)N [leupeptin] | inhibited |  | 
5 | O=S(=O)(F)Cc1ccccc1 [phenylmethyl sulfonyl fluoride] | not inhibited |  | 
6 | ABM3 (K44)-OT: ABM3 (R44) peptide (SEQ ID NO: 98) conjugated to diphtheria toxoid (VTLKWDAPNGTPNPNPNPNPNPNPGTTTLSESF-NH2; not fully specified (N-terminus); also: conjugated to diphtheria toxoid; listed as Porphyromonas gingivalis) |  | 12.27 | 
7 | ABM4 (K44)-DT: ABM4 (K44) peptide (SEQ ID NO: 35) conjugated to diphtheria toxoid (WIERTVDLPAGTKYVAFRHY-NH2; not fully specified (N-terminus); also: conjugated to diphtheria toxoid; listed as Porphyromonas gingivalis) |  | 18.83 | 
8 | ABM5 (R15)-DT: ABM5 (R15) peptide (SEQ ID NO: 50) conjugated to diphtheria toxoid (PAEWTTIDADGDGQGW-NH2; not fully specified (N-terminus); also: conjugated to diphtheria toxoid; listed as Porphyromonas gingivalis) |  | 14.79 | 
9 | Control peptide-DT: Control peptide PrtR27 (1432-1463) (SEQ ID NO: 97) conjugated to diphtheria toxoid (ANEAKVVLAADNVWGDNTGYQFLLDADHNTFG; also: conjugated to diphtheria toxoid; listed as Porphyromonas gingivalis) [reference compound] |  | 36.61 | protection against P. gingivalis challenge (lesion size), in words [2]: did not provide protection
10 | Diphtheria Toxoid [DT, reference compound] |  | 33.59 | protection against P. gingivalis challenge (lesion size), in words [2]: does not provide protection
11 | FNGGISLANYTGHGSETAWGT (listed as Porphyromonas gingivalis) [PAS1 (R45)] |  |  | inhibition of binding of the TLCK-inactivated PrtR-PrtK complex to the adsorbed ABM peptide ([3]; FIG. 10): did not inhibit
12 | PAS1 (R45)-DT: PAS1 (R45) peptide (SEQ ID NO: 1) conjugated to diphtheria toxoid (FNGGISLANYTGHGSETAWGT; also: conjugated to diphtheria toxoid; listed as Porphyromonas gingivalis) |  | 10.46 | protection against P. gingivalis challenge (lesion size), in words [2]: Significantly reduced lesion size
13 | PYQPVSNLTATTQGQKVTLKWDAPSTK [ABM1 (R45)] |  |  | molar excess of peptide in solution required to inhibit binding of the complex to the ABM peptide adsorbed onto the microtitre plate ([3]; TLCK-inactivated PrtR-PrtK complex 1 mg/ml, FIG. 10): 5-100 fold; binding of the PrtR-PrtK complex to the substance [3]: Specific binding
14 | casein [reference compound] |  |  | binding of the PrtR-PrtK complex to the substance [3]: lack of binding; inhibition of binding of the TLCK-inactivated PrtR-PrtK complex to the adsorbed ABM peptide ([3]; FIG. 10): did not inhibit
